Patent publication US9897592B2, “Methods for identifying arthropod repellents and attractants, and compounds and compositions identified by such methods” (The Regents of the University of California, priority 2013, dated 2018)
Structures can show the parent of a compound that is named as a salt.

Test system: cpA neuron
Assay: Single-sensillum recording: activation of cpA neuron by odorants
Type: cell-based, Aedes aegypti
Settings: A. aegypti cpA, 0.5-s pulses, odorants 10^−2 in paraffin oil or water, solvent response subtracted
Description: FIG. 3b depicts representative traces and mean responses of the A. aegypti cpA neuron to 0.5-s pulses of 138 predicted compounds screened using single-sensillum recordings, in which odorants were diluted to 10^−2 in paraffin oil or water, and responses to solvent have been subtracted, n=2-6, and error bars are s.d.
FIG. 5f is a bar graph illustrating the mean responses of the A. aegypti cpA neuron to 0.5-s pulses of 22 newly predicted compounds screened as in FIG. 3b, where salmon bars correspond to odorants found in human odor, odorants were diluted to 10^−2 in paraffin oil or water, and responses to solvent have been subtracted, and n=2-5.
Adult female A. aegypti (Linnaeus 1762) (Rockefeller strain) A. gambiae sensu stricto Giles 1902 (G3 strain), or C. quinquefasciatus Say 1823 were tested 3-12 days post-emergence with single-sensillum extracellular recordings. Chemicals were obtained from Sigma-Aldrich at the highest purity (typically >99%) and were dissolved in paraffin oil or water. […] Response to clean beads was subtracted from the results reported. Only sensilla with cpA activity of <20 spikes s^−1 to negative control were considered for analysis.
CpA-off and sham treated mosquitoes were pre-treated for 3 min in an upended 1 L glass dish in which 100 μl of fresh butyryl chloride (1%) or paraffin oil was allowed to vaporize for 10-20 min. The odor delivery system for different screens is shown in FIG. 7b; solvent responses during the same recording session were subtracted. Inhibition screen was tested. For the ultra-prolonged activator the 3-s stimulus was delivered from a 10 ml disposable pipette using a CS-55 stimulus controller (Syntech), CO2 was delivered, and responses to subsequent odor stimuli were calculated by subtracting baseline activity 1 s prior to each stimulus. When responses to repeated pulses of cyclopentanone and CO2 were compared, baseline activity between seconds 5 and 6 following each stimulus was subtracted. Spike counting was done manually or with Igor Pro6.2 (Wavemetrics) with the Neuromatic v2.00 macro (by Jason Rothman), and peak-to-peak spike amplitudes for FIG. 8 were analysed in Clampfit 10.3 (Molecular Devices).
From the large list of cpA receptor ligands predicted from Example 3 above, 138 compounds were selected based on desirable criteria for application such as smell, presence in natural sources, human safety profile, and cost to procure. These compounds were tested individually using single-sensillum electrophysiology on the cp sensillum of female A. aegypti, according to the procedure described in Example 1 above.

Point of comparison: `NCCC(=O)O` [3-aminopropanoic acid], “Activation (spikes s^−1)” value 8.0 spikes s^−1. Against it:
- c1cnc2cccnc2c1 [1,5-naphthyridine] — lower, 1.5 spikes s^−1
- CC(=O)c1ccc[nH]1 [1-(1H-pyrrol-2-yl)ethanone] — lower, 1.5 spikes s^−1
- CC(=O)C1=NCCS1 [1-(4,5-dihydro-1,3-thiazol-2-yl)ethanone] — the same, 8.0 spikes s^−1
- Cn1cccc1 [1-methylpyrrole] — higher, 54.2 spikes s^−1
- CCCC(=O)c1ccccc1 [1-phenylbutan-1-one] — lower, 1.5 spikes s^−1
- CCC(O)c1ccccc1 (stereo not drawn) [1-phenylpropan-1-ol] — lower, −3.5 spikes s^−1
- CC(=O)c1ccncc1 [1-pyridin-4-ylethanone] — lower, 3.5 spikes s^−1
- O=Cc1cnc[nH]1 [1H-imidazole-5-carbaldehyde] — lower, 2.5 spikes s^−1
- c1cc[nH]c1 [1H-pyrrole] — higher, 89.8 spikes s^−1
- CCc1nccnc1CC [2,3-diethylpyrazine] — lower, −15.5 spikes s^−1
- C=C(C)C(=C)C [2,3-dimethylbuta-1,3-diene] — higher, 10.0 spikes s^−1
- CC1CCCC(C)N1 (stereo not drawn) [2,6-dimethylpiperidine] — lower, 2.5 spikes s^−1
- Cc1cncc(C)n1 [2,6-dimethylpyrazine] — higher, 14.8 spikes s^−1
- CC(C)Cc1nccs1 [2-(2-methylpropyl)-1,3-thiazole] — higher, 12.0 spikes s^−1
- Cc1ncsc1CCO [2-(4-methyl-1,3-thiazol-5-yl)ethanol] — lower, 4.5 spikes s^−1
- CCOCc1cnccn1 [2-(ethoxymethyl)pyrazine] — lower, −8.0 spikes s^−1
- CC(C)SCc1ccco1 [2-(propan-2-ylsulfanylmethyl)furan] — lower, −0.5 spikes s^−1
- C[N+](C)(C)CC(=O)[O-] [2-(trimethylazaniumyl)acetate] — lower, 2.5 spikes s^−1
- CCC(C)C(N)C(=O)O (stereo not drawn) [2-amino-3-methylpentanoic acid] — lower, −2.5 spikes s^−1
- CCC(N)C(=O)O (stereo not drawn) [2-aminobutanoic acid] — lower, −3.0 spikes s^−1
- CC(N)C(=O)O (stereo not drawn) [2-aminopropanoic acid] — lower, −1.5 spikes s^−1
- CCC(C)c1nccnc1OC (stereo not drawn) [2-butan-2-yl-3-methoxypyrazine] — lower, −10.5 spikes s^−1
- CCOC1CCCO1 (stereo not drawn) [2-ethoxyoxolane] — lower, 6.5 spikes s^−1
- CCc1ccc[nH]1 [2-ethyl-1H-pyrrole] — higher, 8.5 spikes s^−1
- CCc1nccnc1OC [2-ethyl-3-methoxypyrazine] — lower, −17.5 spikes s^−1
- CCc1nccnc1C [2-ethyl-3-methylpyrazine] — lower, −7.5 spikes s^−1
- CCc1cnccn1 [2-ethylpyrazine] — higher, 34.5 spikes s^−1
- COc1nccnc1C [2-methoxy-3-methylpyrazine] — lower, −27.5 spikes s^−1
- Cc1nccnc1CC(C)C [2-methyl-3-(2-methylpropyl)pyrazine] — lower, 1.0 spikes s^−1
- CSc1ccoc1C [2-methyl-3-methylsulfanylfuran] — higher, 12.0 spikes s^−1
- Cc1ccccc1C=O [2-methylbenzaldehyde] — higher, 19.0 spikes s^−1
- CCC(C)C=O (stereo not drawn) [2-methylbutanal] — higher, 33.5 spikes s^−1
- Cc1ccco1 [2-methylfuran] — higher, 48.0 spikes s^−1
- CC1OCCC1=O (stereo not drawn) [2-methyloxolan-3-one] — higher, 58.4 spikes s^−1
- CCC=C(C)C=O [2-methylpent-2-enal] — higher, 36.5 spikes s^−1
- C/C=C\C(=O)OCC(C)C [2-methylpropyl (Z)-but-2-enoate] — lower, −5.0 spikes s^−1
- CC(C)COC=O [2-methylpropyl formate] — higher, 48.0 spikes s^−1
- CCC(=O)C(=O)O [2-oxobutanoic acid] — lower, 7.0 spikes s^−1
- CCCC(=O)C(=O)O [2-oxopentanoic acid] — lower, 0.0 spikes s^−1
- CCCCCc1ccccn1 [2-pentylpyridine] — lower, −6.5 spikes s^−1
- CC(C)CC(=O)OCCc1ccccc1 [2-phenylethyl 3-methylbutanoate] — lower, 4.5 spikes s^−1
- C/C=C(\C)C(=O)OCCc1ccccc1 [2-phenylethyl (E)-2-methylbut-2-enoate] — lower, 2.5 spikes s^−1
- CCCC(=O)OCCc1ccccc1 [2-phenylethyl butanoate] — lower, −5.5 spikes s^−1
- CCC(=O)OCCc1ccccc1 [2-phenylethyl propanoate] — lower, −1.5 spikes s^−1
- CC1CC(=O)C(=O)C1C (stereo not drawn) [3,4-dimethylcyclopentane-1,2-dione] — lower, 1.5 spikes s^−1
- Cc1cncc(C)c1 [3,5-dimethylpyridine] — lower, 7.5 spikes s^−1
- CC(C)=CCCC(C)CCO (stereo not drawn) [3,7-dimethyloct-6-en-1-ol] — lower, 1.5 spikes s^−1
- CC(C)=CCCC(C)CC(=O)O (stereo not drawn) [3,7-dimethyloct-6-enoic acid] — lower, 6.0 spikes s^−1
- CC(C)Cc1cccnc1 [3-(2-methylpropyl)pyridine] — lower, 5.5 spikes s^−1
- CCc1cccnc1 [3-ethylpyridine] — higher, 42.5 spikes s^−1
- CC(=O)C(C)O (stereo not drawn) [3-hydroxybutan-2-one] — lower, 0.5 spikes s^−1
- CC(C)=CC=O [3-methylbut-2-enal] — higher, 55.5 spikes s^−1
- CC(C)=CC(=O)O [3-methylbut-2-enoic acid] — lower, 0.5 spikes s^−1
- CC(C)CCO [3-methylbutan-1-ol] — higher, 51.8 spikes s^−1
- CC(C)CC=O [3-methylbutanal] — higher, 60.2 spikes s^−1
- CC(C)CC#N [3-methylbutanenitrile] — higher, 75.8 spikes s^−1
- CC1=CC(O)CCC1 (stereo not drawn) [3-methylcyclohex-2-en-1-ol] — higher, 23.0 spikes s^−1
- CC1=CC(=O)CC1 [3-methylcyclopent-2-en-1-one] — higher, 31.0 spikes s^−1
- CC1CCC(=O)C1=O (stereo not drawn) [3-methylcyclopentane-1,2-dione] — lower, 3.5 spikes s^−1
- CCC(C)CC(=O)O (stereo not drawn) [3-methylpentanoic acid] — lower, 3.7 spikes s^−1
- Cc1cccc(O)c1 [3-methylphenol] — higher, 44.0 spikes s^−1
- OCCCc1ccccc1 [3-phenylpropan-1-ol] — lower, −3.0 spikes s^−1

Same assay, conditions: cpA neuron; 20 compounds from the top 200 SVM ligand predictions; negative values = inhibition; N = 4

Point of comparison: `Cc1csc(C)n1` [2,4-dimethyl-1,3-thiazole], “Activation (spikes s−1)” value 39.0 spikes s−1. Against it:
- C=CCCC [1-pentene] — lower, 10.3 spikes s−1
- Cc1ccc(C)s1 [2,5-dimethylthiophene] — lower, 0.3 spikes s−1
- CCc1cccs1 [2-ethylthiophene] — lower, 9.3 spikes s−1
- CC1CCCO1 (stereo not drawn) [2-methyloxolane] — higher, 82.5 spikes s−1
- CC(C)CO [2-methylpropan-1-ol] — higher, 95.0 spikes s−1
- C=C(C)CCO [3-methylbut-3-en-1-ol] — higher, 64.3 spikes s−1
- C=CCSC [3-methylsulfanylprop-1-ene] — higher, 52.8 spikes s−1
- Cc1ccsc1 [3-methylthiophene] — lower, 33.8 spikes s−1
